{"source": "patent US20100093715A1", "about": "“Plant productivity enhancement by combining chemical agents with transgenic modifications” (BASF SE, priority 2007, published 2010)", "key": {"[1]": {"system": "J553x(HIIIAxA188) null and transgenic corn", "experiment": "Fipronil/Pyraclostrobin study, second trial: seed treatment, greenhouse growth, LemnaTec Scanalyzer imaging", "format": "in vivo, maize (Zea Mays L.)", "procedure": "(§1) J553x(HIIIAxA188) null and transgenic corn seeds of the T2 generation were treated with deionized water (Blank), 200 grams fipronil, 10 grams pyraclostrobin (F500), and 200 grams fipronil+10 grams pyraclostrobin; all formulation rates were grams/100 kg seed. Every formulation was applied to approximately 80 seeds. The formulation was pipetted into a 125 ml flask along the sides and bottom of the flask before adding the seeds and shaking the flask for 30 seconds. The coated seeds were then removed from the flask and placed in a plastic dish for drying.\n(§2) Seventy-five 3-L pots per treatment (Blank, fipronil, pyraclostrobin, and fipronil+pyraclostrobin) were filled with potting media, labeled with colored stakes, and given a unique barcode. One seed per pot was planted at a depth of approximately 2 cm and covered with media. The media was lightly watered to imbibe the seeds, while allowing for ample oxygen exchange and so that the chemical coatings on the seeds remained intact. After planting, the pots were randomly distributed into three replicate blocks (1 bench=1 block), each with 25 plants of every treatment.\n(§3) The plants were maintained in a greenhouse under optimal, well-watered conditions (80-90% field capacity) upon emergence. Supplemental nutrients were administered every third day during watering. The greenhouse temperature was maintained at 30° C., relative humidity at 75%, and light at 350 μmol m^−2s^−1, in a 15-hour day/9-hour night photoperiod. Supplemental lighting was provided using metal-halide lights. Once per week, the pots were randomly mixed within each block.\n(§4) On day 21, the plants were imaged to collect the phenotypic data as described in the Imaging Procedures section. Leaves were sampled for transgene copy number on day 25 to identify the null and transgenic plants. On day 28, the plants were imaged and then harvested to collect fresh weight. The presence of the transgene was determined by the Taqman molecular analysis technique. Differences in the phenotypic data collected during the imaging process and in fresh weight among the four treatments and between the null and transgenic plants were assessed. The chemical by transgenic interactions were determined.\n(§5) Imaging of the plants was facilitated using a LemnaTec Scanalyzer (Würselen, Germany), which includes a conveyor belt, an imaging station, a watering station, and computers for collecting, processing, and storing the image data. The cameras have a resolution of 1280×960 pixels and operate in 24-bit color.\n(§6) The plants were manually transferred by block onto the conveyor system of the scanalyzer. Each plant was then moved through the imager automatically. At the imaging station, cameras collected the top view image and two side view images. The side view images were the transverse view and the view parallel with the plane of the plant.\n(§7) As described in the formula (see Appendix A), the scanalyzer calculates plant volume as a number of pixels. To assign a physiologically meaningful value to the volume measurements, a separate experiment was conducted. The plants were scanned with the scanalyzer then harvested. The plant material was placed into a graduated cylinder filled to a known volume with water. The difference between the water plus plant material and water alone provided a known plant volume in mL.\n(§8) Using the LemnaTec scanalyzer, we collected stem width; stalk volume; top, transverse, and parallel view plant areas; top, transverse, and parallel view green and yellow pixel counts; stem length; leaf angles and internode lengths through leaf 5; plant width and height; total leaf length; and total plant length.\n(§9) Fresh Weight—A measurement of the fresh weight of the plant in grams. Hand-collected fresh weight is measured by harvesting the plant and weighing it on a balance. LemnaTec fresh weight is calculated by the scanalyzer based on plant volume and plant age. The zoom angles of the camera lenses are normalized using a calibration table. […]"}, "[2]": {"system": "J553x(HIIIAxA188) null and transgenic corn", "experiment": "Fipronil/Pyraclostrobin study, initial trial: seed treatment, greenhouse growth, LemnaTec Scanalyzer imaging and harvest", "format": "in vivo, maize (Zea Mays L.)", "conditions": "for Internode 1 length / Internode 2 length / Internode 3 length: seed treatment; for Fresh Weight: hand-collected", "procedure": "as §1, §2, §3, §4, §5, §6, §7, §8, §9"}}}
{"smiles": "COC(=O)N(OC)c1ccccc1COc1ccn(-c2ccc(Cl)cc2)n1", "note": "[F500, pyraclostrobin]", "values": [{"measurement": "Plant volume, significance of treatment", "setting": "[1]", "value": "significant at 99%"}, {"measurement": "dark green pixel count, significance of treatment", "setting": "[1]", "value": "significant at 99%"}, {"measurement": "Broad Side Drk Grn", "setting": "[1]; Avg", "value": 26984.96, "unit": "pixels"}, {"measurement": "Broad Side Plnt Area", "setting": "[1]; Avg", "value": 38169.74, "unit": "pixels"}, {"measurement": "Calc Fresh Weight", "setting": "[1]; Avg", "value": 105.47, "unit": "g"}, {"measurement": "Narrow Side Drk Grn", "setting": "[1]; Avg", "value": 27393.61, "unit": "pix"}, {"measurement": "Plant Volume", "setting": "[1]; Avg", "value": 10.47, "unit": "M pixels"}, {"measurement": "Top Drk Grn", "setting": "[1]; Avg", "value": 59991.92, "unit": "pixels"}, {"measurement": "Broad Side Drk Grn", "setting": "[1]; Null plants", "value": 26088.87, "unit": "pixels"}, {"measurement": "Broad Side Plnt Area", "setting": "[1]; Null plants", "value": 36740.30, "unit": "pixels"}, {"measurement": "Calc Fresh Weight", "setting": "[1]; Null plants", "value": 100.53, "unit": "g"}, {"measurement": "Narrow Side Drk Grn", "setting": "[1]; Null plants", "value": 26394.93, "unit": "pix"}, {"measurement": "Plant Volume", "setting": "[1]; Null plants", "value": 9.90, "unit": "M pixels"}, {"measurement": "Top Drk Grn", "setting": "[1]; Null plants", "value": 57676.78, "unit": "pixels"}, {"measurement": "Broad Side Drk Grn", "setting": "[1]; Trans plants", "value": 27881.04, "unit": "pixels"}, {"measurement": "Broad Side Plnt Area", "setting": "[1]; Trans plants", "value": 39599.17, "unit": "pixels"}, {"measurement": "Calc Fresh Weight", "setting": "[1]; Trans plants", "value": 110.41, "unit": "g"}, {"measurement": "Narrow Side Drk Grn", "setting": "[1]; Trans plants", "value": 28392.28, "unit": "pix"}, {"measurement": "Plant Volume", "setting": "[1]; Trans plants", "value": 11.04, "unit": "M pixels"}, {"measurement": "Top Drk Grn", "setting": "[1]; Trans plants", "value": 62307.07, "unit": "pixels"}, {"measurement": "photosynthetic health (in words)", "setting": "[1]; in general", "value": "enhanced"}, {"measurement": "plant size (in words)", "setting": "[1]; in general", "value": "enhanced"}, {"measurement": "# Fully Expanded Leaves", "setting": "[2]; Avg", "value": 3.0}, {"measurement": "Leaf Angle 0", "setting": "[2]; Avg", "value": 46.6, "unit": "degrees"}, {"measurement": "Leaf Angle 1", "setting": "[2]; Avg", "value": 37.4, "unit": "degrees"}, {"measurement": "Plant Volume", "setting": "[2]; Avg", "value": "6.43E+06", "unit": "pixels"}, {"measurement": "Stem Length", "setting": "[2]; Avg", "value": 104.4, "unit": "cm"}, {"measurement": "stalk area from the transverse view, Pixel Count", "setting": "[2]; Avg", "value": 4724, "unit": "pixels"}, {"measurement": "Internode 1 length", "setting": "[2]; Avg of null and transgenic", "value": 34.3, "unit": "cm"}, {"measurement": "Internode 2 length", "setting": "[2]; Avg of null and transgenic", "value": 38.4, "unit": "cm"}, {"measurement": "Internode 3 length", "setting": "[2]; Avg of null and transgenic", "value": 40.7, "unit": "cm"}, {"measurement": "# Fully Expanded Leaves", "setting": "[2]; Null plants", "value": 2.9}, {"measurement": "Leaf Angle 0", "setting": "[2]; Null plants", "value": 39.2, "unit": "degrees"}, {"measurement": "Leaf Angle 1", "setting": "[2]; Null plants", "value": 36.5, "unit": "degrees"}, {"measurement": "Plant Volume", "setting": "[2]; Null plants", "value": "6.18E+06", "unit": "pixels"}, {"measurement": "Stem Length", "setting": "[2]; Null plants", "value": 97.2, "unit": "cm"}, {"measurement": "stalk area from the transverse view, Pixel Count", "setting": "[2]; Null plants", "value": 4725, "unit": "pixels"}, {"measurement": "Internode 1 length", "setting": "[2]; Null plants", "value": 32.5, "unit": "cm"}, {"measurement": "Internode 2 length", "setting": "[2]; Null plants", "value": 36.0, "unit": "cm"}, {"measurement": "Internode 3 length", "setting": "[2]; Null plants", "value": 38.8, "unit": "cm"}, {"measurement": "Internode 1 length", "setting": "[2]; Trans (transgenic) plants", "value": 35.9, "unit": "cm"}, {"measurement": "Internode 2 length", "setting": "[2]; Trans (transgenic) plants", "value": 40.4, "unit": "cm"}, {"measurement": "Internode 3 length", "setting": "[2]; Trans (transgenic) plants", "value": 42.1, "unit": "cm"}, {"measurement": "# Fully Expanded Leaves", "setting": "[2]; Trans plants", "value": 3.1}, {"measurement": "Leaf Angle 0", "setting": "[2]; Trans plants", "value": 52.5, "unit": "degrees"}, {"measurement": "Leaf Angle 1", "setting": "[2]; Trans plants", "value": 38.2, "unit": "degrees"}, {"measurement": "Plant Volume", "setting": "[2]; Trans plants", "value": "6.63E+06", "unit": "pixels"}, {"measurement": "Stem Length", "setting": "[2]; Trans plants", "value": 110.2, "unit": "cm"}, {"measurement": "stalk area from the transverse view, Pixel Count", "setting": "[2]; Trans plants", "value": 4723, "unit": "pixels"}, {"measurement": "Fresh Weight", "setting": "[2]; Avg", "value": 155.3, "unit": "grams"}, {"measurement": "Fresh Weight", "setting": "[2]; Null plants", "value": 155.7, "unit": "grams"}, {"measurement": "Fresh Weight", "setting": "[2]; Trans plants", "value": 155.0, "unit": "grams"}, {"measurement": "Dark Green Count", "setting": "[2]; parallel view, Avg", "value": 14884.7, "unit": "pixels"}, {"measurement": "Medium Green Count", "setting": "[2]; parallel view, Avg", "value": 6153.1, "unit": "pixels"}, {"measurement": "Plant Area", "setting": "[2]; parallel view, Avg", "value": 23089.7, "unit": "pixels"}, {"measurement": "Yellow Count", "setting": "[2]; parallel view, Avg", "value": 2051.9, "unit": "pixels"}, {"measurement": "Dark Green Count", "setting": "[2]; parallel view, Null plants", "value": 14727.7, "unit": "pixels"}, {"measurement": "Medium Green Count", "setting": "[2]; parallel view, Null plants", "value": 5691.8, "unit": "pixels"}, {"measurement": "Plant Area", "setting": "[2]; parallel view, Null plants", "value": 22426.2, "unit": "pixels"}, {"measurement": "Yellow Count", "setting": "[2]; parallel view, Null plants", "value": 2006.6, "unit": "pixels"}, {"measurement": "Dark Green Count", "setting": "[2]; parallel view, Trans plants", "value": 15010.4, "unit": "pixels"}, {"measurement": "Medium Green Count", "setting": "[2]; parallel view, Trans plants", "value": 6522.1, "unit": "pixels"}, {"measurement": "Plant Area", "setting": "[2]; parallel view, Trans plants", "value": 23620.6, "unit": "pixels"}, {"measurement": "Yellow Count", "setting": "[2]; parallel view, Trans plants", "value": 2088.1, "unit": "pixels"}, {"measurement": "Medium Green Count", "setting": "[2]; top view, Avg", "value": 18542, "unit": "pixels"}, {"measurement": "Medium Green Count", "setting": "[2]; top view, Null plants", "value": 17893, "unit": "pixels"}, {"measurement": "Medium Green Count", "setting": "[2]; top view, Trans plants", "value": 19062, "unit": "pixels"}, {"measurement": "Medium Green Count", "setting": "[2]; transverse view, Avg", "value": 9584.5, "unit": "pixels"}, {"measurement": "Yellow Count", "setting": "[2]; transverse view, Avg", "value": 4227.2, "unit": "pixels"}, {"measurement": "Medium Green Count", "setting": "[2]; transverse view, Null plants", "value": 9303.7, "unit": "pixels"}, {"measurement": "Yellow Count", "setting": "[2]; transverse view, Null plants", "value": 4081.7, "unit": "pixels"}, {"measurement": "Medium Green Count", "setting": "[2]; transverse view, Trans plants", "value": 9809.2, "unit": "pixels"}, {"measurement": "Yellow Count", "setting": "[2]; transverse view, Trans plants", "value": 4343.5, "unit": "pixels"}]}
